Experiments:
[1] = test system: HeLa cervical cancer cells; assay: cell viability with or without Chk1 inhibitor CHIR-124, HeLa; format: cell-based, human; conditions: plus CHIR-124 500 nM, 48 h constant exposure
Experimental: (§1) With this in mind, and considering the strong Chk1 activation in response to 1, HeLa cervical cancer cells, which are […][44], were exposed to a combination of 1 plus the Chk1 inhibitor CHIR-124[45] and the impact of co-treatment upon cell viability determined. A non-cytotoxic dose of 500 nM CHIR-124 was used and results were compared to single-agent treatment. […] Minimal enhancement of the anti-proliferative effect of 2 by CHIR-124 was observed (Fig. S15b), in agreement with 2 operating via a Chk1-independent mechanism.
(§2) Figure 5 Concurrent treatment of [Ru(dppz)2(PIP)]^2+ plus the Chk1 inhibitor CHIR-124 potentiates synergistic apoptosis in cancer cells. (a) Viability of HeLa (cervical cancer) or hSAEC1-KT (normal epithelial) cells after incubation with 1 in the absence or presence of Chk1 inhibitor CHIR-124 (500 nM) for 48 h constant exposure. […] (c) Quantification of apoptotic cells for experimental conditions as shown in (b). […] (f) Quantification of γH2AX foci from cells treated as in (e). […] Minimum of 150 cells counted per experiment. […]
(§3) Cells were seeded in 96 well plates at 20,000 cells/well, allowed to proliferate for 24 h before treatment as described in the main text. […] The absorbance at 540 nm was quantified by plate reader (reference wavelength 650 nm). The metabolic activity of the cell population was determined as a percentage of a negative (solvent) control.

[2] = test system: hSAEC1-KT human epithelial cells; assay: cell viability with or without Chk1 inhibitor CHIR-124, hSAEC1-KT; format: cell-based; conditions: normal hSAEC1-KT cells, plus CHIR-124 500 nM, 48 h, any concentration of 1
Experimental: as §1, §2, §3

[3] = test system: HeLa cells; assay: quantification of apoptotic morphology (pyknosis/karyorrhexis); format: cell-based, human; conditions: single-agent treatment, 48 h (1 40 μM; CHIR-124 500 nM)
Experimental: as §1
Figure 5 Concurrent treatment of [Ru(dppz)2(PIP)]^2+ plus the Chk1 inhibitor CHIR-124 potentiates synergistic apoptosis in cancer cells. (a) Viability of HeLa (cervical cancer) or hSAEC1-KT (normal epithelial) cells after incubation with 1 in the absence or presence of Chk1 inhibitor CHIR-124 (500 nM) for 48 h constant exposure. (b) Morphological evidence for apoptosis (pyknosis/karyorrhexis, arrows) in HeLa cells treated with 40 μM 1 plus CHIR-124 for 48 h. Scale bars = 20 μm. (c) Quantification of apoptotic cells for experimental conditions as shown in (b). Equivalent results for 2 (40 μM, 48 h) included. Data mean of two independent experiments +/− SD. […] (f) Quantification of γH2AX foci from cells treated as in (e). […] Minimum of 150 cells counted per experiment. […]

[4] = test system: HeLa cells; assay: cell-cycle analysis by PI flow cytometry; format: cell-based, human; conditions: 40 μM, 24 h
Experimental: Figure 4 [Ru(dppz)2(PIP)]^2+ induces Chk1 checkpoint kinase activation and G1-S cell-cycle arrest. […] See SI for densitometry. (c) Cell-cycle distributions of HeLa cells incubated with DMSO (0.2%), 1 or 2 at the stated concentrations and time. DNA content was quantified using propidium iodide (PI) and analysed by flow cytometry. […] Data mean of three independent experiments +/− SD. […] They are copied as bare numbers, left to right. / The gate numbers in panel c are very small, so 3, 5, 6, 8 and 9 cannot be told apart with certainty. All the values below are best readings. / DMSO: 0.86, 57.4, 22.5, 16.8 uncertain / 1 (40 μM, 3 h): 0.46, 72.7, 13.5, 8.77 uncertain / 1 (40 μM, 8 h): 1.69, 73.2, 15.3, 3.6 uncertain / 1 (40 μM, 24 h): 1.2, 72.9, 15.8, 6.47 uncertain. […] 32.4 is partly overlapped by the peak line.
Cells were washed with PBS and detached using Trypsin. After centrifugation at 1000 rpm for 5 min, cells were fixed in cold 70% ethanol for 30 mins, centrifuged and re-suspended in PBS. Samples were stained using 10 μg/ml propidium iodide (PI) and 200 μg/ml RNAase A for 30 mins before FACS analysis using a Biosciences LSRII Flow Cytometer. A minimum of 10,000 cells were counted for each sample and data were processed using FloJo software. […]

SMILES | cell viability on simultaneous treatment with CHIR-124 compared to either agent alone [1] | impact on cell health on combination with CHIR-124 [2] | morphological evidence of apoptosis (pyknosis/karyorrhexis) [3] [%] | change in cell-cycle distribution compared to controls [4]
[Ru+2].c1ccc(-c2nc3c4cccnc4c4ncccc4c3[nH]2)cc1.c1ccc2nc3c4cccnc4c4ncccc4c3nc2c1.c1ccc2nc3c4cccnc4c4ncccc4c3nc2c1 [Complex 1, [Ru(dppz)2(PIP)]^2+] | significant decrease in cell viability | no substantial impact on cell health | < 5 | 
Oc1ccc(-c2nc3c4cccnc4c4ncccc4c3[nH]2)cc1.[Ru+2].c1ccc2nc3c4cccnc4c4ncccc4c3nc2c1.c1ccc2nc3c4cccnc4c4ncccc4c3nc2c1 [Complex 2, [Ru(dppz)2(p-HPIP)]^2+] |  |  |  | no change in cell-cycle distribution
